Patent US20070149505A1, “Method of Inhibiting Adhesion Formation” (SmithKline Beecham Corporation, priority 2001, published 2007)
Where “and” joins values, the source holds several entries; their conditions need not be identical. Equal values may be shown once.

System: uterine horn adhesions
Test: rabbit uterine horn model of adhesion formation, oral + local (gel) COMPOUND 1 study
Assay type: in vivo, New Zealand White rabbits
Set-up: key to tenacity of the adhesions score (in parentheses), Right Horn, Bowel / tenacity of the adhesions score (in parentheses), Right Horn, Itself / tenacity of the adhesions score (in parentheses), Left Horn, Itself / tenacity of the adhesions score (in parentheses), Right Horn, Left / tenacity of the adhesions score (in parentheses), Left Horn, Bowel / tenacity of the adhesions score (in parentheses), Left Horn, Right / tenacity of the adhesions score (in parentheses), Right Horn, Bladder / tenacity of the adhesions score (in parentheses), Left Horn, Bladder: 0=No Adhesions; 1=mild, easily dissectable adhesions; 2=moderate adhesions; non-dissectable, does not tear the organ; 3=dense adhesions; non-dissectable, tears organ when removed; key to Overall score: overall adhesion score; 1 = mild, 1.5+ slightly tougher/more extensive
Conditions: for Overall, (group summary): group value ± spread, overall scores analyzed by rank order analysis
Experimental: The compounds of the instant invention are tested in known models of adhesion formation. These test systems include a rabbit sidewall model of adhesion formation as described in Rogers, et al., J. Invest. Surg., 9:388-391 (1996) and Rodgers, et al., […], 69(3):403-408 (1998); a rat model for adhesion formation as described in Harris, et al., Surgery, 117:663-669 (1995); and a rabbit animal model used to examine laparoscopic adhesion prevention. The rabbit uterine horn model may also be used to test the use of the instant vitronectin inhibiting compounds as inhibitors of adhesion formation. The experimental details and results using this model are detailed below.
Animals: New Zealand White rabbits, 2.4-2.7 kg, were purchased and quarantined for at least 2 days prior to use. The rabbits were randomized into appropriate control and treatment groups (see experimental designs below). The rabbits were housed on a 12:12 light:dark cycle with food and water available ad libitum. Each treatment group in all studies contained 8-10 animals.
Adhesion Model: The animals that received COMPOUND 1 or vehicle according to the experimental design (below). The rabbits that received placebo at surgery received two doses of vehicle orally. Rabbits were anesthetized with a mixture of 55 mg/kg ketamine hydrochloride and 5 mg/kg Rompum intramuscularly. Following preparation for sterile surgery, a midline laparotomy was performed. The uterine horns were exteriorized and traumatized by abrasion of the serosal surface with gauze until punctate bleeding developed. Ischemia of both uterine horns was induced by removal of the collateral blood supply. The remaining blood supply to the uterine horns was the ascending branches of the utero-vaginal arterial supply of the myometrium. The midline muscle and skin incision were closed.
After 7 or 14 days, the rabbits were terminated and adhesions were scored on a site and rabbit basis. Specifically, the percentage of the area of the horns adherent to various organs was determined. In addition, the tenacity of the adhesions was scored using the following system:
1=mild, easily dissectable adhesions
3=dense adhesions; non-dissectable, tears organ when removed
An overall score which took into account all of the above data was given to each rabbit. The following scoring system was used:
0.5+ Light, filmy pelvic adhesions involving only one organ, typically only 1 or 2 small adhesions
1.0+ Light, filmy adhesions, not extensive although slightly more extensive than 0.5
1.5+ Adhesions slightly tougher and more extensive than a 1 rating
2.0+ Tougher adhesions, a little more extensive, uterine horns usually have adhesions to both bowel and bladder
2.5+ Same as 2, except the adhesions are usually not filmy at any site and more extensive
3.0+ Tougher adhesions than 2, more extensive, both horns are attached to the bowel and bladder, some movement of the uterus possible
3.5+ Same as 3, but adhesions slightly more extensive and tougher
4.0+ Severe adhesions, both horns attached to the bowel and bladder, unable to move the uterus without tearing the adhesions
The rabbits were scored by two independent observers that were blinded to the prior treatment of the animal. If there was disagreement as to the score to be assigned to an individual animal, the higher score was given.
Statistical Analysis: The tenacity and overall scores were analyzed by rank order analysis and analysis of variance on the ranks. The percentage area of the horns involved to the various organs were compared by Student's t test.
[…] received two loading doses of 60 mg/kg COMPOUND 1 orally prior to surgery. At the end of the procedure, the animals received either nothing (surgical control), or 12 ml of placebo (10% CMC) or one of two doses (1 mg/ml or 0.1 mg/ml) of COMPOUND 1 at the site of surgical injury.
Oral+local study: Two loading doses of COMPOUND 1 (60 mg/kg, po) were administered orally prior to surgery. […]

[1] = 1 mg/ml COMPOUND 1, 1 Week Necropsy Time, group mean ± spread
[2] = 1 mg/ml COMPOUND 1, 1 Week Necropsy Time, individual rabbit
[3] = 1 mg/ml COMPOUND 1, 1 Week Necropsy Time, individual rabbit, dash = site adhesion free
[4] = 1 mg/ml COMPOUND 1, 2 Week Necropsy Time, group mean ± spread
[5] = 1 mg/ml COMPOUND 1, 2 Week Necropsy Time, individual rabbit
[6] = 1 mg/ml COMPOUND 1, 2 Week Necropsy Time, individual rabbit, dash = site adhesion free
[7] = 1 mg/ml COMPOUND 1, listed after Control/Placebo 1 Week
[8] = 1 mg/ml COMPOUND 1, listed after Control/Placebo 2 Weeks

In the case of `O=C(O)C[C@@H]1Cc2ccc(OCCCNc3ccccn3)cc2CN(CC(F)(F)F)C1=O` [COMPOUND 1, (S)-3-oxo-8-[3-(pyridin-2-ylamino)-1-propyloxy]-2-(2,2,2-trifluoroethyl)-2,3,4,5-tetrahydro-1H-2-benzazepine-4-acetic acid], the “% Sites Adhesion Free” value (0.1 mg/ml COMPOUND 1, listed after Control/Placebo 2 Weeks) is reported as 38.75%, the “% Horn Involved, Left Horn, Bladder” value [1] is reported as 0.0 ± 0.0% and the “% Horn Involved, Left Horn, Bowel” value [1] is reported as 18.0 ± 4.2%. The “% Horn Involved, Left Horn, Itself” value [1] was 18.0 ± 4.7%, the “% Horn Involved, Left Horn, Right” value [1] was 15.0 ± 4.0% and the “% Horn Involved, Right Horn, Bladder” value [1] was 3.0 ± 1.5%. For the same compound, the “% Horn Involved, Right Horn, Bowel” value [1] was 19.0 ± 3.8%, the “% Horn Involved, Right Horn, Itself” value [1] was 10.0 ± 4.2% and the “% Horn Involved, Right Horn, Left” value [1] was 15.0 ± 4.0%. For the same compound, the “Overall, (group summary)” value (1 mg/ml COMPOUND 1, 1 Week Necropsy Time) was 21.3 ± 3.9, the Overall score [2] was 1.0 (3×) and 0.5 and 1.5 (5×) and 2.0 and the “tenacity of the adhesions score (in parentheses), Left Horn, Bowel” value [2] was 1. For the same compound, the “tenacity of the adhesions score (in parentheses), Left Horn, Itself” value [2] was 1, the “tenacity of the adhesions score (in parentheses), Left Horn, Right” value [2] was 1 (6×) and 2 and the “tenacity of the adhesions score (in parentheses), Right Horn, Bladder” value [2] was 1. The “tenacity of the adhesions score (in parentheses), Right Horn, Bowel” value [2] was 1, the “tenacity of the adhesions score (in parentheses), Right Horn, Itself” value [2] was 1 and the “tenacity of the adhesions score (in parentheses), Right Horn, Left” value [2] was 1 (6×) and 2. The “% Horn Involved, Left Horn, Bowel” value [3] was 30% (4×) and 20% (3×), the “% Horn Involved, Left Horn, Itself” value [3] was 20% (2×) and 30% (3×) and 10% and 40% and the “% Horn Involved, Left Horn, Right” value [3] was 20% (2×) and 10% (2×) and 30% (3×). The “% Horn Involved, Right Horn, Bladder” value [3] was 10%, the “% Horn Involved, Right Horn, Bowel” value [3] was 30% (4×) and 10% and 20% (3×) and the “% Horn Involved, Right Horn, Itself” value [3] was 20% (2×) and 10% (2×) and 40%. The “% Horn Involved, Right Horn, Left” value [3] was 20% (2×) and 10% (2×) and 30% (3×), the “% Horn Involved, Left Horn, Bladder” value [4] was 4.0 ± 2.7% and the “% Horn Involved, Left Horn, Bowel” value [4] was 17.0 ± 5.2%. For the same compound, the “% Horn Involved, Left Horn, Itself” value [4] was 18.0 ± 4.2%, the “% Horn Involved, Left Horn, Right” value [4] was 5.0 ± 3.4% and the “% Horn Involved, Right Horn, Bladder” value [4] was 4.0 ± 2.2%. The “% Horn Involved, Right Horn, Bowel” value [4] was 13.0 ± 4.0%, the “% Horn Involved, Right Horn, Itself” value [4] was 13.0 ± 5.0% and the “% Horn Involved, Right Horn, Left” value [4] was 5.0 ± 3.4%. The “Overall, (group summary)” value (1 mg/ml COMPOUND 1, 2 Week Necropsy Time) was 21.2 ± 5.5, the Overall score [5] was 1.0 (5×) and 2.5 and 1.5 (2×) and 0.5 and 2.0 and the “tenacity of the adhesions score (in parentheses), Left Horn, Bladder” value [5] was 2 and 1. For the same compound, the “tenacity of the adhesions score (in parentheses), Left Horn, Bowel” value [5] was 2 (2×) and 1 (4×), the “tenacity of the adhesions score (in parentheses), Left Horn, Itself” value [5] was 1 (6×) and 2 (2×) and the “tenacity of the adhesions score (in parentheses), Left Horn, Right” value [5] was 2 and 1. For the same compound, the “tenacity of the adhesions score (in parentheses), Right Horn, Bladder” value [5] was 1, the “tenacity of the adhesions score (in parentheses), Right Horn, Bowel” value [5] was 1 (6×) and 2 and the “tenacity of the adhesions score (in parentheses), Right Horn, Itself” value [5] was 1 (4×) and 2. For the same compound, the “tenacity of the adhesions score (in parentheses), Right Horn, Left” value [5] was 2 and 1, the “% Horn Involved, Left Horn, Bladder” value [6] was 20% and the “% Horn Involved, Left Horn, Bowel” value [6] was 30% (4×) and 10% and 40%. The “% Horn Involved, Left Horn, Itself” value [6] was 20% (3×) and 30% (2×) and 10% (2×) and 40%, the “% Horn Involved, Left Horn, Right” value [6] was 30% and 20% and the “% Horn Involved, Right Horn, Bladder” value [6] was 10% (2×) and 20%. The “% Horn Involved, Right Horn, Bowel” value [6] was 10% (4×) and 30% (3×), the “% Horn Involved, Right Horn, Itself” value [6] was 20% and 30% (2×) and 10% and 40% and the “% Horn Involved, Right Horn, Left” value [6] was 30% and 20%. The “# Sites Adhesion Free” value [7] was 36, the “% Sites Adhesion Free” value [7] was 45.0% and the “# Sites Adhesion Free” value [8] was 45. For the same compound, the “% Sites Adhesion Free” value [8] was 56.25%.
